Experimental data from publication PMC11436758, “Computer-aided drug design to generate a unique antibiotic family” (Nature Communications, 2024).
≈ marks a conversion by molar mass, not a printed value. Where “and” joins values, the source holds several entries; their conditions need not be identical. Equal values may be shown once.

Experiments:
[1] = test system: S. aureus (MRSA); experiment: MIC, clinical and laboratory strains; assay type: cell-based
Method: The medium employed for the assay was Mueller Hinton II Broth (MHB II; Becton-Dickinson, Sparks, MD, USA). Agar plates used for the organisms were trypticase soy agar plus 5% sheep blood (BD; Sparks, MD, USA). MIC assay plates were prepared using the CLSI broth microdilution procedure. Automated liquid handlers (Multidrop 384, Biomek 2000 and Biomek FX) were used to conduct serial dilutions and liquid transfers. A standardized inoculum of each organism was prepared per CLSI methods. Suspensions were prepared to equal a 0.5 McFarland standard, followed by a 1:20 dilution in test media. The inocula were dispensed into sterile reservoirs divided by length (Beckman Colter) and the Biomek 2000 was used to inoculate the plates. Daughter plates were placed on the Biomek 2000 work surface in reverse orientation so that inoculation took place from low to high drug concentration. The Biomek 2000 delivered 10 μL of the diluted suspension into each well. These inoculations yielded a final cell concentration in the daughter plates of ~5 × 10^5 colony-forming units/mL in each well. The wells of the daughter plates ultimately contained 185 μL of broth, 5 μL of drug solution, and 10 μL of bacterial inoculum. Plates were covered with a sterile lid on the top plate, placed in plastic bags, and incubated at 35 °C for ~18 h. The microplates were viewed from the bottom using a plate viewer and the MIC was read. The MIC was recorded as the lowest concentration of drug that inhibited visible growth of the organism.

[2] = target: T1, wild-type AcpS (Escherichia coli, UniProt P24224); experiment: Inhibition of purified wild-type AcpS by DNM0547; assay type: biochemical, E. coli; conditions: for AcpS rate nM/min, Mean / AcpS rate: Suppl Fig 3, [AcpS_WT] 5 nM; for AcpS rate: replicates
T1 construct: 6x-His (C); made in house

[3] = target: T2, AcpS^H-/108A (Escherichia coli, UniProt P24224, H108A); experiment: Inhibition of purified AcpS site-directed mutant by DNM0547; assay type: biochemical, E. coli; conditions: for AcpS rate nM/min, Mean / AcpS rate: Suppl Fig 3, [AcpS_H108A] 5nM; for AcpS rate: replicates
T2 construct: 6x-His (C); made in house
T2 sequence (P24224 whole entry H108A): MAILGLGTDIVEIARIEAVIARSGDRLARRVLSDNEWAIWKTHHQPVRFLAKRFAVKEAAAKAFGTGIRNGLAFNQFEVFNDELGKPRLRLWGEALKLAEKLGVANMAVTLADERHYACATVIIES

T1 sequence (P24224 whole entry): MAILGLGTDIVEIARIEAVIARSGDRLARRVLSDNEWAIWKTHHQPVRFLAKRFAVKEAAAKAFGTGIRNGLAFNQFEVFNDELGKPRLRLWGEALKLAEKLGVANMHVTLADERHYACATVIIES

CC(C)c1cc(Cl)ccc1-c1cc(-c2nnn[nH]2)c(-c2ccc(Cl)cc2C(C)C)s1 [DNM0547]
MIC ([1]; S. aureus (MRSA) 6313): 1 µg/mL (≈ 2.19 µM)
MIC ([1]; S. aureus (MRSA) 6315): 1 µg/mL (≈ 2.19 µM)
MIC ([1]; S. aureus (MRSA) 6320): 1 µg/mL (≈ 2.19 µM)
MIC ([1]; S. aureus (MRSA) 6498): 2 µg/mL (≈ 4.37 µM)
MIC ([1]; S. aureus (MRSA) 6501): 2 µg/mL (≈ 4.37 µM)
MIC ([1]; S. aureus (MRSA) 6505): 1 µg/mL (≈ 2.19 µM)
MIC ([1]; S. aureus (MRSA) 6506): 2 µg/mL (≈ 4.37 µM)
MIC ([1]; S. aureus (MRSA) NRS382/2119): 1 µg/mL (≈ 2.19 µM)
MIC ([1]; S. aureus (MRSA) NRS383/2120): 1 µg/mL (≈ 2.19 µM)
MIC ([1]; S. aureus (MRSA) NRS384/2011): 2 µg/mL (≈ 4.37 µM)
IC50 [2]: 5.1 µM
AcpS rate nM/min, Mean ([2]; Drug Conc 1 uM): 40.51 nM/min
AcpS rate ([2]; Drug Conc 1 uM): 41.16 nM/min and 37.27 nM/min and 43.10 nM/min
AcpS rate nM/min, Mean ([2]; Drug Conc 2 uM): 36.72 nM/min
AcpS rate ([2]; Drug Conc 2 uM): 35.90 nM/min and 37.65 nM/min and 36.61 nM/min
AcpS rate nM/min, Mean ([2]; Drug Conc 4 uM): 24.24 nM/min
AcpS rate ([2]; Drug Conc 4 uM): 27.20 nM/min and 22.45 nM/min and 23.08 nM/min
AcpS rate nM/min, Mean ([2]; Drug Conc 8 uM): 14.81 nM/min
AcpS rate ([2]; Drug Conc 8 uM): 14.57 nM/min and 15.17 nM/min and 14.69 nM/min
AcpS rate nM/min, Mean ([2]; Drug Conc 16 uM): 6.58 nM/min
AcpS rate ([2]; Drug Conc 16 uM): 5.73 nM/min and 8.26 nM/min and 5.76 nM/min
AcpS rate nM/min, Mean ([2]; Drug Conc 32 uM): 2.47 nM/min
AcpS rate ([2]; Drug Conc 32 uM): 2.50 nM/min and 2.59 nM/min and 2.33 nM/min
AcpS rate nM/min, Mean ([2]; Drug Conc 64 uM): 1.94 nM/min
AcpS rate ([2]; Drug Conc 64 uM): 1.85 nM/min and 1.95 nM/min and 2.00 nM/min
AcpS rate nM/min, Mean ([2]; Drug Conc 128 uM): 1.59 nM/min
AcpS rate ([2]; Drug Conc 128 uM): 1.43 nM/min and 1.51 nM/min and 1.82 nM/min
remaining activity at 1 µM ([2]; read-out: % of untreated, Suppl Fig 3, [AcpS_WT] 5 nM, Drug Conc 1 uM, replicates): 99.1%
remaining activity at 2 µM ([2]; read-out: % of untreated, Suppl Fig 3, [AcpS_WT] 5 nM, Drug Conc 2 uM, replicates): 86.4%
remaining activity at 4 µM ([2]; read-out: % of untreated, Suppl Fig 3, [AcpS_WT] 5 nM, Drug Conc 4 uM, replicates): 65.5%
remaining activity at 8 µM ([2]; read-out: % of untreated, Suppl Fig 3, [AcpS_WT] 5 nM, Drug Conc 8 uM, replicates): 35.1%
remaining activity at 16 µM ([2]; read-out: % of untreated, Suppl Fig 3, [AcpS_WT] 5 nM, Drug Conc 16 uM, replicates): 13.8%
remaining activity at 32 µM ([2]; read-out: % of untreated, Suppl Fig 3, [AcpS_WT] 5 nM, Drug Conc 32 uM, replicates): 6.02%
remaining activity at 64 µM ([2]; read-out: % of untreated, Suppl Fig 3, [AcpS_WT] 5 nM, Drug Conc 64 uM, replicates): 4.46%
remaining activity at 128 µM ([2]; read-out: % of untreated, Suppl Fig 3, [AcpS_WT] 5 nM, Drug Conc 128 uM, replicates): 3.45%
IC50 [3]: 5.6 µM
AcpS rate nM/min, Mean ([3]; Drug Conc 1 uM): 7.81 nM/min
AcpS rate ([3]; Drug Conc 1 uM): 7.96 nM/min and 7.81 nM/min and 7.64 nM/min
AcpS rate nM/min, Mean ([3]; Drug Conc 2 uM): 6.86 nM/min
AcpS rate ([3]; Drug Conc 2 uM): 6.91 nM/min and 7.01 nM/min and 6.66 nM/min
AcpS rate nM/min, Mean ([3]; Drug Conc 4 uM): 4.72 nM/min
AcpS rate ([3]; Drug Conc 4 uM): 4.74 nM/min and 4.76 nM/min and 4.66 nM/min
AcpS rate nM/min, Mean ([3]; Drug Conc 8 uM): 3.23 nM/min
AcpS rate ([3]; Drug Conc 8 uM): 2.93 nM/min and 3.30 nM/min and 3.44 nM/min
AcpS rate nM/min, Mean ([3]; Drug Conc 16 uM): 2.83 nM/min
AcpS rate ([3]; Drug Conc 16 uM): 3.20 nM/min and 2.39 nM/min and 2.90 nM/min
AcpS rate nM/min, Mean ([3]; Drug Conc 32 uM): 1.69 nM/min
AcpS rate ([3]; Drug Conc 32 uM): 1.65 nM/min and 1.74 nM/min and 1.68 nM/min
AcpS rate nM/min, Mean ([3]; Drug Conc 64 uM): 1.60 nM/min
AcpS rate ([3]; Drug Conc 64 uM): 1.52 nM/min and 1.63 nM/min and 1.65 nM/min
AcpS rate nM/min, Mean ([3]; Drug Conc 128 uM): 1.34 nM/min
AcpS rate ([3]; Drug Conc 128 uM): 1.38 nM/min and 1.44 nM/min and 1.20 nM/min
remaining activity at 1 µM ([3]; read-out: % of untreated, Suppl Fig 3, [AcpS_H108A] 5nM, Drug Conc 1 uM, replicates): 105%
remaining activity at 2 µM ([3]; read-out: % of untreated, Suppl Fig 3, [AcpS_H108A] 5nM, Drug Conc 2 uM, replicates): 90.9%
remaining activity at 4 µM ([3]; read-out: % of untreated, Suppl Fig 3, [AcpS_H108A] 5nM, Drug Conc 4 uM, replicates): 62.4%
remaining activity at 8 µM ([3]; read-out: % of untreated, Suppl Fig 3, [AcpS_H108A] 5nM, Drug Conc 8 uM, replicates): 38.5%
remaining activity at 16 µM ([3]; read-out: % of untreated, Suppl Fig 3, [AcpS_H108A] 5nM, Drug Conc 16 uM, replicates): 42.1%
remaining activity at 32 µM ([3]; read-out: % of untreated, Suppl Fig 3, [AcpS_H108A] 5nM, Drug Conc 32 uM, replicates): 21.7%
remaining activity at 64 µM ([3]; read-out: % of untreated, Suppl Fig 3, [AcpS_H108A] 5nM, Drug Conc 64 uM, replicates): 20%
remaining activity at 128 µM ([3]; read-out: % of untreated, Suppl Fig 3, [AcpS_H108A] 5nM, Drug Conc 128 uM, replicates): 18.1%
